Test results from article PMC4490784, “Compensatory induction of MYC expression by sustained CDK9 inhibition via a BRD4-dependent mechanism” (eLife, 2015).

Assays:
Test in all cases: KINOMEscan binding assay
[1] = target: T1, DYRK1B (Homo sapiens, UniProt Q9Y463); details: read-out: % Retention on Solid Support
T1 construct: purchased DiscoveRx KINOMEscan
Summary of the method: (§1)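 Competitive displacement at the ATP site served as the measure. Over 400 kinases were included, each exposed to i-CDK9 at 1 and at 10 µM.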

[2] = target: T2, QSK (Homo sapiens, UniProt Q9Y2K2)
T2 construct: purchased DiscoveRx KINOMEscan
T2 sequence (Q9Y2K2 whole entry): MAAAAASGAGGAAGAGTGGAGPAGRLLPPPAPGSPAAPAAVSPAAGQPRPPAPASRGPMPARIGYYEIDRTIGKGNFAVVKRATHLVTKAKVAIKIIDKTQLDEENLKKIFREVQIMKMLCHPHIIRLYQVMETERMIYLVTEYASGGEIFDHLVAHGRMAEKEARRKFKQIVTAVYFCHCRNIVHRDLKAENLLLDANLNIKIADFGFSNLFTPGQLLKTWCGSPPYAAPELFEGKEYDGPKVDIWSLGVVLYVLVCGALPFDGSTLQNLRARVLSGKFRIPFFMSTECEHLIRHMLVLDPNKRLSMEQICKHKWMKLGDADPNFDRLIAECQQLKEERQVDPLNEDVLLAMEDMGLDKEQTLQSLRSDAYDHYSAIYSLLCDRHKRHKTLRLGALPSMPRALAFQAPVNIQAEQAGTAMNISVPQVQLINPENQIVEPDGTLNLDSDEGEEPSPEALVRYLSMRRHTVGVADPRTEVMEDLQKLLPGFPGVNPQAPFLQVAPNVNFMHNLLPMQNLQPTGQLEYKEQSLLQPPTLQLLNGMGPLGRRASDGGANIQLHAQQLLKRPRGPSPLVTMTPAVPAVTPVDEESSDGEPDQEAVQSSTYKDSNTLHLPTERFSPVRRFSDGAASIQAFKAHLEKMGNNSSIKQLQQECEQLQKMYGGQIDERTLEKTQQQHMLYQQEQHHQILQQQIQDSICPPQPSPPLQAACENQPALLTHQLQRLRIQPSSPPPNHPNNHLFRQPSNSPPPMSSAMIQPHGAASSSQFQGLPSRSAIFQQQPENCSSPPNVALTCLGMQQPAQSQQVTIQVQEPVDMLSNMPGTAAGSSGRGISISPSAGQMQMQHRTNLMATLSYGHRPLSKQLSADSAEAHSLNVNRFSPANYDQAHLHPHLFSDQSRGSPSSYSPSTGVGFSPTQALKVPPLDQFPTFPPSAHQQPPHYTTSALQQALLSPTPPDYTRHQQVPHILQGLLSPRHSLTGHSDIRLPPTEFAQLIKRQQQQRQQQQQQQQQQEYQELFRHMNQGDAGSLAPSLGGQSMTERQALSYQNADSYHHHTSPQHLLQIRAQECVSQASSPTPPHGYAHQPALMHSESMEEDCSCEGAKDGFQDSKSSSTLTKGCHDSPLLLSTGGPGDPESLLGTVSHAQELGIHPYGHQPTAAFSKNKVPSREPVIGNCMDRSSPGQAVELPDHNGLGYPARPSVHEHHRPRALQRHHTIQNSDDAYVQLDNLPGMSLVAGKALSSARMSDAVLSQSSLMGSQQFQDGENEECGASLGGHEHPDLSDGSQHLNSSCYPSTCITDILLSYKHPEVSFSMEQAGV
Summary of the method: as §1

[3] = target: T3, CDK8 (Homo sapiens, UniProt P49336)
T3 construct: purchased DiscoveRx KINOMEscan
T3 sequence (P49336 whole entry): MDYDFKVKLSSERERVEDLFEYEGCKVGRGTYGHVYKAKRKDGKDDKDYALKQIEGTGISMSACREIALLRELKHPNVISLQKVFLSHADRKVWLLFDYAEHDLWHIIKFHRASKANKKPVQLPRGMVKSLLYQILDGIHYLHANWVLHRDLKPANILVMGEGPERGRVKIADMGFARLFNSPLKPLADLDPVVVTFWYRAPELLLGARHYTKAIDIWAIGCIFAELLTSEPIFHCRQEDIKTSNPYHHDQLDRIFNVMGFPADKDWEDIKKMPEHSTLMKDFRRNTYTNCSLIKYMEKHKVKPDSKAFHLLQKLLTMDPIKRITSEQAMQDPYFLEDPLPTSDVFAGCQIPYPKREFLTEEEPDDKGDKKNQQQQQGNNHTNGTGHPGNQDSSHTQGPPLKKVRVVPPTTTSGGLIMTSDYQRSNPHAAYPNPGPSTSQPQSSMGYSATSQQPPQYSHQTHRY
Summary of the method: as §1

[4] = target: T4, PAK1 (Homo sapiens, UniProt Q13153); details: read-out: % Retention on Solid Support
T4 construct: purchased DiscoveRx KINOMEscan
Summary of the method: as §1

[5] = target: T5, TAOK3 (Homo sapiens, UniProt Q9H2K8); details: read-out: % Retention on Solid Support
T5 construct: purchased DiscoveRx KINOMEscan
T5 sequence (Q9H2K8 1-898): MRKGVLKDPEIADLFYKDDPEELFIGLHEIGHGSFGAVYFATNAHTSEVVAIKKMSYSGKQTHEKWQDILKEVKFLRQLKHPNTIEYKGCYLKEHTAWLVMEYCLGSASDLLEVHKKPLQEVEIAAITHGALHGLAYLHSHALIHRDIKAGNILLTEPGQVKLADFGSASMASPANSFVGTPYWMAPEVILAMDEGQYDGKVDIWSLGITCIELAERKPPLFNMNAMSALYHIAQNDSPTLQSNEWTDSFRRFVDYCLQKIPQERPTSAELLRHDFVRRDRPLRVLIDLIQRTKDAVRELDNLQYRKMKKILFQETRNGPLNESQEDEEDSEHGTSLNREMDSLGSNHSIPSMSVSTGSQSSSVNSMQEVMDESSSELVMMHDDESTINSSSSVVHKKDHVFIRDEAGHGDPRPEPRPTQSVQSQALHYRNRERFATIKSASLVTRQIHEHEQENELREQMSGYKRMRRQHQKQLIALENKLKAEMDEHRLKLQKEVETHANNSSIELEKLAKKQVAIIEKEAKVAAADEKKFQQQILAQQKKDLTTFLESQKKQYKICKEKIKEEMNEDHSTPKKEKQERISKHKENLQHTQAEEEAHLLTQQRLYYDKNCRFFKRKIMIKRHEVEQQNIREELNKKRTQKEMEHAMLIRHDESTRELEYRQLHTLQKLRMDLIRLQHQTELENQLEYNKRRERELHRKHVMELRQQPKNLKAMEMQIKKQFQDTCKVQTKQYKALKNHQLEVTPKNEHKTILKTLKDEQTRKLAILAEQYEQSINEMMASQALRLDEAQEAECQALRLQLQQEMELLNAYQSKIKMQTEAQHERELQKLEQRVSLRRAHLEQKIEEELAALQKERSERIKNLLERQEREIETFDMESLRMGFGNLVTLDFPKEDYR
Summary of the method: as §1

[6] = target: T6, BRSK2 (Homo sapiens, UniProt Q8IWQ3); details: read-out: % Retention on Solid Support
T6 construct: purchased DiscoveRx KINOMEscan
T6 sequence (Q8IWQ3 whole entry): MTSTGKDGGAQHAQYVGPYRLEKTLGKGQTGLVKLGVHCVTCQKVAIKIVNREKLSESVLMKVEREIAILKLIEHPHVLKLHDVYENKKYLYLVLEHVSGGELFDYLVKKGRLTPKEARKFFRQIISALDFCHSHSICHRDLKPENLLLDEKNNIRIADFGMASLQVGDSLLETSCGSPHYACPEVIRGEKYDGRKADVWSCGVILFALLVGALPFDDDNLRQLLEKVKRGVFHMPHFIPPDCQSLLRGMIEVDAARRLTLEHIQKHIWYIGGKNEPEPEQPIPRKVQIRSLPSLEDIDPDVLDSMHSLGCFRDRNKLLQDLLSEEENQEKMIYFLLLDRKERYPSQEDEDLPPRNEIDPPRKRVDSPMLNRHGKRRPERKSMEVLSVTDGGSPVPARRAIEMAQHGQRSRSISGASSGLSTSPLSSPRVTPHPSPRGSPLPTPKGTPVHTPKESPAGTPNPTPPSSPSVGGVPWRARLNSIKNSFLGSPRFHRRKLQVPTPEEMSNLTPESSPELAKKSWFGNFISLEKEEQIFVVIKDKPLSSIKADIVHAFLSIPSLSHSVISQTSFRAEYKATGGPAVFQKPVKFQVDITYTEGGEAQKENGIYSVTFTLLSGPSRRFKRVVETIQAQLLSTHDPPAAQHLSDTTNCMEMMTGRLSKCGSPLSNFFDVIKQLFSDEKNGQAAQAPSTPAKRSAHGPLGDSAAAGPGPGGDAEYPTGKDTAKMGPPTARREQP
Summary of the method: as §1

[7] = target: T7, JNK2 (Homo sapiens, UniProt P45984)
T7 construct: purchased DiscoveRx KINOMEscan
T7 sequence (P45984 whole entry): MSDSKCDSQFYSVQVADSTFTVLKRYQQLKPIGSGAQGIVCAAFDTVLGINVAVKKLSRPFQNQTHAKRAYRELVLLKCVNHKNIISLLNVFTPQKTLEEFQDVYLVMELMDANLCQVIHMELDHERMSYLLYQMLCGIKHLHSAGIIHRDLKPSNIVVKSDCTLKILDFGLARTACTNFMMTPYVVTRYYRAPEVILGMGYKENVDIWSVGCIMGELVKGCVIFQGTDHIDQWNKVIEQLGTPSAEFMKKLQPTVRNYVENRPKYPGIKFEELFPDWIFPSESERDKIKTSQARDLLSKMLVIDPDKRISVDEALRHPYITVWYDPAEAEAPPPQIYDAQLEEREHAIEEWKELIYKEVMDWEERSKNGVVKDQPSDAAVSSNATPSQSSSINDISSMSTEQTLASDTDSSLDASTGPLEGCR
Summary of the method: as §1

[8] = target: T8, IGF1R (Homo sapiens, UniProt P08069); details: read-out: % Retention on Solid Support
T8 construct: purchased DiscoveRx KINOMEscan
T8 sequence (P08069 31-1367): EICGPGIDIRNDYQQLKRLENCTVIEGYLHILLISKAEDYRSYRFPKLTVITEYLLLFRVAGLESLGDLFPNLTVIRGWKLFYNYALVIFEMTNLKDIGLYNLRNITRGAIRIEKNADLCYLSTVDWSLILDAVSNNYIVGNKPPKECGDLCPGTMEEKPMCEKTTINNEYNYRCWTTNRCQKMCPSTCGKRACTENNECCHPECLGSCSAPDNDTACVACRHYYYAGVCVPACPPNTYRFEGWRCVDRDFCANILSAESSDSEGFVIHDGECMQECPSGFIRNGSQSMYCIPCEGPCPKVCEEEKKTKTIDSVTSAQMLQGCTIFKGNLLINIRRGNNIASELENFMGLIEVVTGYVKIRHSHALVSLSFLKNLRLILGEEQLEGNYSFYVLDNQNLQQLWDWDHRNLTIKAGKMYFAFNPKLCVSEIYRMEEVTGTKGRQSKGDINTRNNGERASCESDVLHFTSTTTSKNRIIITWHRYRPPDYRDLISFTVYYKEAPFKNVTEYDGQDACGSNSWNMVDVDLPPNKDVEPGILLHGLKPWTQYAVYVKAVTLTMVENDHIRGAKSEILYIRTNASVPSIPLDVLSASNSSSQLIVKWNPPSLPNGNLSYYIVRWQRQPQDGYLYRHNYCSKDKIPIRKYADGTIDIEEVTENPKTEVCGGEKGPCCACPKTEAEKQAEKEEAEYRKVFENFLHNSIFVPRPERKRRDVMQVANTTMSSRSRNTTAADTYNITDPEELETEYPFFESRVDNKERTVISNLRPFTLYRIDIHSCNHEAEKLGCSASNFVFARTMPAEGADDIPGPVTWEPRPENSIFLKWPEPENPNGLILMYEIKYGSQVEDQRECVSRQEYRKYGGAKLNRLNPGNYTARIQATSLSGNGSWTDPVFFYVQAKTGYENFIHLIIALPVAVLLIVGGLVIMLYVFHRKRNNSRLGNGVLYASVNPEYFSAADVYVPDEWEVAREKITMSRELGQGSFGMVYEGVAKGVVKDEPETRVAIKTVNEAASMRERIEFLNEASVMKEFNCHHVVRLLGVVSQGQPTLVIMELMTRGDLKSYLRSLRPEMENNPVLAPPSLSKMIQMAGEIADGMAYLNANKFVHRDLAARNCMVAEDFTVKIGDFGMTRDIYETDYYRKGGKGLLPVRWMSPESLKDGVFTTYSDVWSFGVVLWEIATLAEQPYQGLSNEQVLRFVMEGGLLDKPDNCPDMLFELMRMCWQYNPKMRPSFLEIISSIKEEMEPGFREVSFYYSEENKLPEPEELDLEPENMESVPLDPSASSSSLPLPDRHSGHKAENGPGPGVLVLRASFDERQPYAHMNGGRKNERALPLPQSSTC
Summary of the method: as §1

[9] = target: T9, TYK2(JH1domain-catalytic) (Homo sapiens, UniProt P29597)
T9 construct: TYK2(JH1domain-catalytic); purchased DiscoveRx KINOMEscan
Summary of the method: as §1

[10] = target: T10, AURKA (Homo sapiens, UniProt O14965); details: read-out: % Retention on Solid Support
T10 construct: purchased DiscoveRx KINOMEscan
T10 sequence (O14965 1-403): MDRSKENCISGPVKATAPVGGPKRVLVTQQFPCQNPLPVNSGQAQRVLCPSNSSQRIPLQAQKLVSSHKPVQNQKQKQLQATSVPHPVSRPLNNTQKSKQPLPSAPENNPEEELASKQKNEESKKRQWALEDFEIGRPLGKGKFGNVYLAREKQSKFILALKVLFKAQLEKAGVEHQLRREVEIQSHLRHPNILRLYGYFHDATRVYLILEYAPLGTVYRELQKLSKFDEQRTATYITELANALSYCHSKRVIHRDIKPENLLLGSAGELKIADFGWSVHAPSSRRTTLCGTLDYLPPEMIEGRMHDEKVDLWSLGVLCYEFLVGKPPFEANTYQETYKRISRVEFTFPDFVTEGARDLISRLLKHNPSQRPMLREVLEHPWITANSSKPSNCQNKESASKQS
Summary of the method: as §1

[11] = target: T11, PLK1 (Homo sapiens, UniProt P53350); details: read-out: % Retention on Solid Support
T11 construct: purchased DiscoveRx KINOMEscan
Summary of the method: as §1

[12] = target: T12, NEK6 (Homo sapiens, UniProt Q9HC98); details: read-out: % Retention on Solid Support
T12 construct: purchased DiscoveRx KINOMEscan
T12 sequence (Q9HC98 whole entry): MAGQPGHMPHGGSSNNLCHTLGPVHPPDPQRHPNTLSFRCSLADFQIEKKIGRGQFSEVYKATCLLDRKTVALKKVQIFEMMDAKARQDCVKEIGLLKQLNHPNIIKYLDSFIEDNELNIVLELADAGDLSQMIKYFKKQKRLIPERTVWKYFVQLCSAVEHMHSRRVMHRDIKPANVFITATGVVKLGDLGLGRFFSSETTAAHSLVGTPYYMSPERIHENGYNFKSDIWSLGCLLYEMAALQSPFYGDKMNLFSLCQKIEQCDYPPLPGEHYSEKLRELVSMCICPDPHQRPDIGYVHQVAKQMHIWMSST
Summary of the method: as §1

[13] = target: T13, AKT3 (Homo sapiens, UniProt Q9Y243); details: read-out: % Retention on Solid Support
T13 construct: purchased DiscoveRx KINOMEscan
Summary of the method: as §1

[14] = target: T14, YANK2 (Homo sapiens, UniProt Q9NY57); details: read-out: % Retention on Solid Support
T14 construct: purchased DiscoveRx KINOMEscan
T14 sequence (Q9NY57 whole entry): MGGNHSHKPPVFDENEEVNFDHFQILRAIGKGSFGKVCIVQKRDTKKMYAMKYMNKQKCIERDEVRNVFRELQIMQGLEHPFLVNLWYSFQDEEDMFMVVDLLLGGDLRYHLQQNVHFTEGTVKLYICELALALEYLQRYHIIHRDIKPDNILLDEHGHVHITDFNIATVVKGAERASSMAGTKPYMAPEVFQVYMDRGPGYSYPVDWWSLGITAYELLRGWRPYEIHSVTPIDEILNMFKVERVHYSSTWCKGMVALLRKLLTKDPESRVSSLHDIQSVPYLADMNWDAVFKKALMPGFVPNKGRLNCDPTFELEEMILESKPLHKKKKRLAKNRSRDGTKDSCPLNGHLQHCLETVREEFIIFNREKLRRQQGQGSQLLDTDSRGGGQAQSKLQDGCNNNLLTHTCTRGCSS
Summary of the method: as §1

[15] = target: T15, NDR2 (Homo sapiens, UniProt Q9Y2H1); details: read-out: % Retention on Solid Support
T15 construct: purchased DiscoveRx KINOMEscan
Summary of the method: as §1

With `N[C@H]1CC[C@H](Nc2cc(-c3cccc(NCc4cccc(F)c4)n3)c(Cl)cn2)CC1` [i-CDK9, N2′-(trans-4-aminocyclohexyl)-5′-chloro-N6-(3-fluorobenzyl)-2,4′-bipyridine-2′,6-diamine] the remaining binding at 1 µM ([1]; 1 µM i-CDK9) was 0.95%, the remaining binding at 10 µM ([1]; 10 µM i-CDK9) was 0.7% and the “% Retention on Solid Support” value ([2]; 1 µM i-CDK9) was 7.4%. The “% Retention on Solid Support” value ([2]; 10 µM i-CDK9) was 92%, the “% Retention on Solid Support” value ([3]; 1 µM i-CDK9) was 44% and the “% Retention on Solid Support” value ([3]; 10 µM i-CDK9) was 100%. For the same compound, the remaining binding at 1 µM ([4]; 1 µM i-CDK9) was 100%, the remaining binding at 10 µM ([4]; 10 µM i-CDK9) was 100% and the remaining binding at 1 µM ([5]; 1 µM i-CDK9) was 12%. For the same compound, the remaining binding at 10 µM ([5]; 10 µM i-CDK9) was 1.2%, the remaining binding at 1 µM ([6]; 1 µM i-CDK9) was 93% and the remaining binding at 10 µM ([6]; 10 µM i-CDK9) was 88%. The “% Retention on Solid Support” value ([7]; 1 µM i-CDK9) was 98%, the “% Retention on Solid Support” value ([7]; 10 µM i-CDK9) was 78% and the remaining binding at 1 µM ([8]; 1 µM i-CDK9) was 94%. The remaining binding at 10 µM ([8]; 10 µM i-CDK9) was 100%, the “% Retention on Solid Support” value ([9]; 1 µM i-CDK9) was 62% and the “% Retention on Solid Support” value ([9]; 10 µM i-CDK9) was 100%. It also gave a remaining binding at 1 µM ([10]; 1 µM i-CDK9) of 92%, a remaining binding at 10 µM ([10]; 10 µM i-CDK9) of 97% and a remaining binding at 1 µM ([11]; 1 µM i-CDK9) of 100%. It also gave a remaining binding at 10 µM ([11]; 10 µM i-CDK9) of 92%, a remaining binding at 1 µM ([12]; 1 µM i-CDK9) of 70% and a remaining binding at 10 µM ([12]; 10 µM i-CDK9) of 100%. It also gave a remaining binding at 1 µM ([13]; 1 µM i-CDK9) of 72%, a remaining binding at 10 µM ([13]; 10 µM i-CDK9) of 87% and a remaining binding at 1 µM ([14]; 1 µM i-CDK9) of 90%. The remaining binding at 10 µM ([14]; 10 µM i-CDK9) was 100%, the remaining binding at 1 µM ([15]; 1 µM i-CDK9) was 95% and the remaining binding at 10 µM ([15]; 10 µM i-CDK9) was 100%.
